From patent publication US20260176258A1, “A THIOETHER COMPOUND HAVING SOFT DRUG PROPERTIES, A PHARMACEUTICAL COMPOSITION AND USE THEREOF” (Prime Gene Therapeutics Co., Ltd., priority 2022, published 2026)
Values belong to the compound of their own block, whether it stands above or below them.

How the values were obtained:
[1] = target: T1, hTRPV3 (Homo sapiens, UniProt Q8NET8); assay: Whole cell patch clamp of TRPV3 current in HEK-293 cells instantaneously expressing TRPV3; assay type: cell-based; details: for inhibition at 0.3 µM: HEK293, single concentration 0.3 μM, patch clamp, read-out: Inhibition rate on hTRPV3
T1 construct: expressed in transfected cells; host or cells: HEK-293
T1 sequence (Q8NET8 1-790): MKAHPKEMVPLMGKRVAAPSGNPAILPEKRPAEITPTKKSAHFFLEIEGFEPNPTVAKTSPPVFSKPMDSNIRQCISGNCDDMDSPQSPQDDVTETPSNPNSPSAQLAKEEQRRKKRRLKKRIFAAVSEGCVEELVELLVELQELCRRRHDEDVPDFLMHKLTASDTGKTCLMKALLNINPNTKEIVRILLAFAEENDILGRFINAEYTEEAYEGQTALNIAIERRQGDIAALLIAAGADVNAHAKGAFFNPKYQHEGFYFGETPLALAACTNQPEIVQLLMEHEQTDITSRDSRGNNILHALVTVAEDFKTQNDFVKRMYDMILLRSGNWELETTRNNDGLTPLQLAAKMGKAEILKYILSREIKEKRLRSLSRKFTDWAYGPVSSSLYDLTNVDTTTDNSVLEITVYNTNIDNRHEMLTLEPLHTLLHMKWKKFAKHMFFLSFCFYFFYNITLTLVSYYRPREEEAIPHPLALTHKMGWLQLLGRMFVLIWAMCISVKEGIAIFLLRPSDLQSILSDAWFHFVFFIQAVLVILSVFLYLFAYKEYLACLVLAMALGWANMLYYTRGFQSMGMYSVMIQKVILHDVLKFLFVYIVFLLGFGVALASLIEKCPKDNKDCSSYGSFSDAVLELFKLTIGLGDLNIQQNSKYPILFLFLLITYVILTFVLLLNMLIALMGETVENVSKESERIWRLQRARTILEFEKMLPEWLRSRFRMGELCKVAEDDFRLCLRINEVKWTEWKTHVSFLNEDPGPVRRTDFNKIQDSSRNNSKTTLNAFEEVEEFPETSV
Procedure: In this study, HEK-293 cells instantaneously expressing TRPV3 were used for experimental detection.
The operation steps are as follows:
The cells were cultured in DMEM medium containing 10% fetal bovine serum at a temperature of 37° C. and a carbon dioxide concentration of 5%.
Day 1: Cells were inoculated into a 6-well plate with 5×10^5 cells per well.
Day 2: Transfection was performed using Lipofectamine 3000 transfection reagent, with a plasmid to transfection reagent ratio of 1 μg: 2 μL. The total amount of plasmid used per well was 3 μg. Specifically, two sterile centrifuge tubes were taken and 100 μL Opti-MEM was added to each tube. 6 μL Lipofectamine 3000 was added to one tube and mixed well; and 3 μg plasmid was added to another tube and mixed well, and then 6 μL P3000 was added and mixed well; after that, the diluted plasmid DNA was addeds to diluted Lipofectamine 3000 and incubated at room temperature for 10-15 min. DNA liposome complex was dropped into the cells, shaked gently and mixed well, and then cultured in an incubator. The liquid was changed after 4 to 6 h.
Day 3: The cells were digested and seeded into 24 well plates with pre-placed cover slides, with 8×10^3 cells per well.
Day 4: Patch clamp testing was performed.
The voltage stimulation protocol for recording TRPV3 current using whole cell patch clamp is as follows: after forming a whole cell seal, a cell membrane voltage clamp was set at −80 mV. Firstly, a membrane potential was recorded at 0 mV, and then a voltage was command to start from −100 mV, to depolarize in the form of Ramp to 100 mV within 100 ms, and finally restore to 0 mV. Data collection was repeated every 5 seconds to observe the inhibitory effect of pharmaceutical on peak current. Experimental data was collected by EPC 10 amplifier (HEKA) and stored in PatchMaster (HEKA) software.
A microelectrode puller was used to pull the capillary glass tube into a recording electrode. The electrode filled with intracellular fluid was inserted into a microelectrode holder, and a microelectrode manipulator was operated under an inverted microscope to immerse the electrode in extracellular fluid and an electrode resistance (Rpip) was recorded. The electrode was brought into contact with the cell surface and a negative pressure suction was applied to form a high resistance seal (GΩ). At this point, a fast capacitance compensation was performed, and negative pressure was continued to apply in order to break the cell membrane, so that a whole cell recording mode was formed. Then, a slow capacitance compensation was performed and experimental parameters such as film capacitance (Cm) and series resistance (Rs) were recorded. No leakage compensation was provided.
When the TRPV3 current recorded by the whole cell had stabilized, administration was started. Each pharmaceutical concentration acted for 5 minutes (or until the current stabilized) before detecting the next concentration. A plurality of concentrations was tested for each test compound. A cover glass covered with cells was placed in a recording bath under an inverted microscope. A blank control extracellular solution and a working fluid for the compound to be tested sequentially flowed through the recording bath from low concentration to high concentration using gravity perfusion to act on the cells. Liquid exchange was performed using a peristaltic pump during recording. The current detected by each cell in the extracellular fluid without the compound served as its own control group. Each concentration was independently tested twice using at least two cells. All electrophysiological tests were conducted at room temperature.

[2] = target: hTRPV1 (Homo sapiens, UniProt Q8NER1); assay: Patch clamp method, hTRPV1; assay type: cell-based
[3] = target: hTRPA1 (Homo sapiens, UniProt O75762); assay: Patch clamp method, hTRPA1; assay type: cell-based
[4] = target: hTRPV4 (Homo sapiens, UniProt Q9HBA0); assay: Patch clamp method, hTRPV4; assay type: cell-based
[5] = Liver microsome metabolism stability test, human; assay type: in vitro ADME; details: human liver microsomes 0.5 mg/mL, 1 μM compound, 37° C.
Procedure: (§1) Two separate experiments were conducted. a) NADPH: 10 μL of 20 mg/mL liver microsomes and 40 μL of 10 mM NADPH were added to a culture medium. The final concentrations of microsomes and NADPH were 0.5 mg/mL and 1 mM, respectively. b) NADPH free: 10 μL of 20 mg/mL liver microsomes and 40 μL of ultrapure H2O were added to a culture medium. The final concentration of microsomes was 0.5 mg/mL.
(§2) At the beginning of the reaction, 4 μL of 100 μM test compound solution or a control compound solution with a final concentration of 1 μM were added, and proceed at 37° C.
(§3) 50 μL aliquots were taken from the reaction solution at 0, 7, 15, 30, and 60 minutes. The reaction was stopped by adding 4 volumes of cold acetonitrile and IS (100 nM alprazolam, 200 nM labetalol, 200 nM caffeine, and 2 μM ketoprofen). The samples were centrifuged at 3220 grams for 40 minutes. 100 μL supernatant divided equally was mixed with 100 μL of ultrapure H2O, and use for LC-MS/MS analysis.

[6] = Liver microsome metabolism stability test, rat; assay type: in vitro ADME; details: rat liver microsomes 0.5 mg/mL, 1 μM compound, 37° C.
Procedure: as §1, §2, §3

hTRPA1, sequence (O75762 whole entry): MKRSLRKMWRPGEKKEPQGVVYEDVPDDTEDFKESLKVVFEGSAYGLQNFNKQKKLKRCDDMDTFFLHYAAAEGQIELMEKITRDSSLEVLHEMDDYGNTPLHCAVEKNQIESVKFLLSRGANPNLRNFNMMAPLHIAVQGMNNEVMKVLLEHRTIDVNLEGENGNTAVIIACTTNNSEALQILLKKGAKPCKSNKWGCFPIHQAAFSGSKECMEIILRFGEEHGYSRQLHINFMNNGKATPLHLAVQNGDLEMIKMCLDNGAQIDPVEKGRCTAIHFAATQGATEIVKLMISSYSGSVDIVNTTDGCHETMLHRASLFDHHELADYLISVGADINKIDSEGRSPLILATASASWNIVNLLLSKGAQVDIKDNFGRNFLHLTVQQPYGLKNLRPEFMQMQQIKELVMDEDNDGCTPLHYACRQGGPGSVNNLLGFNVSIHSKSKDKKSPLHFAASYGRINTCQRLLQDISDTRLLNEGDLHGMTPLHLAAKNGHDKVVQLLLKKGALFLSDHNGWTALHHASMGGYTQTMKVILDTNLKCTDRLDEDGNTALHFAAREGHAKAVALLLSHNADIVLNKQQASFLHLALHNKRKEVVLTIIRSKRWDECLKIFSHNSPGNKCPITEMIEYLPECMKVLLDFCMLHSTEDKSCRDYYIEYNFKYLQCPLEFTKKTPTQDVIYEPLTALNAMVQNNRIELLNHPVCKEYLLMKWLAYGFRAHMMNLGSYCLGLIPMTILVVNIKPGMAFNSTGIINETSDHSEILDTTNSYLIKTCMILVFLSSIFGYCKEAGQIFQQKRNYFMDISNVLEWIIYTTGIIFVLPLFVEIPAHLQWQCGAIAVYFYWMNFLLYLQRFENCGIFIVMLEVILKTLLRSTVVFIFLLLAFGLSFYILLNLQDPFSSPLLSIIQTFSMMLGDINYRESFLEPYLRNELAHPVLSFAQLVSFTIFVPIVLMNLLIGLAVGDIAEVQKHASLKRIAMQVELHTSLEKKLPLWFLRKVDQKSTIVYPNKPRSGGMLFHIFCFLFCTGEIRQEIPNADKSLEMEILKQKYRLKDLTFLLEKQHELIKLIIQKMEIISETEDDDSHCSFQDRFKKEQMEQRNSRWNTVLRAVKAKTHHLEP
hTRPV1, sequence (Q8NER1 whole entry): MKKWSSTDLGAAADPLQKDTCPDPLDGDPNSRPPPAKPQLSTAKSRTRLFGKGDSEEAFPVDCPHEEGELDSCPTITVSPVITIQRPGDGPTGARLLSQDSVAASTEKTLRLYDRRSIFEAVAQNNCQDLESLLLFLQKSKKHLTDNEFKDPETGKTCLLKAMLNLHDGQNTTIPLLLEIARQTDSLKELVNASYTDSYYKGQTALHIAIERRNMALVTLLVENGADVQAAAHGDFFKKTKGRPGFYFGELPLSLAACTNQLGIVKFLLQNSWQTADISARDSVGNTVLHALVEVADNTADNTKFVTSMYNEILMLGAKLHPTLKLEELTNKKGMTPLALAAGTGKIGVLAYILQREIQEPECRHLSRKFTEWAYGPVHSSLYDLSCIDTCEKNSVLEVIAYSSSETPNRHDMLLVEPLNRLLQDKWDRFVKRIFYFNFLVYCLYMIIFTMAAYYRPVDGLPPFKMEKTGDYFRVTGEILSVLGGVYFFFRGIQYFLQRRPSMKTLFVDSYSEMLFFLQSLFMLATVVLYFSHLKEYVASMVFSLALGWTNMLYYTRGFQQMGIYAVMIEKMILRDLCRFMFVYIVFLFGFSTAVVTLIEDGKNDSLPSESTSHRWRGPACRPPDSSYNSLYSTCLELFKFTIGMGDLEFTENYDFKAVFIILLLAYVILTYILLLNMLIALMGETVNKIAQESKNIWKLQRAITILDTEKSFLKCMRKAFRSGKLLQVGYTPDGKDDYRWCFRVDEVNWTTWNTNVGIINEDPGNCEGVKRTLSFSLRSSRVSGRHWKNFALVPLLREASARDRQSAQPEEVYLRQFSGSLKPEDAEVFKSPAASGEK
hTRPV4, sequence (Q9HBA0 whole entry): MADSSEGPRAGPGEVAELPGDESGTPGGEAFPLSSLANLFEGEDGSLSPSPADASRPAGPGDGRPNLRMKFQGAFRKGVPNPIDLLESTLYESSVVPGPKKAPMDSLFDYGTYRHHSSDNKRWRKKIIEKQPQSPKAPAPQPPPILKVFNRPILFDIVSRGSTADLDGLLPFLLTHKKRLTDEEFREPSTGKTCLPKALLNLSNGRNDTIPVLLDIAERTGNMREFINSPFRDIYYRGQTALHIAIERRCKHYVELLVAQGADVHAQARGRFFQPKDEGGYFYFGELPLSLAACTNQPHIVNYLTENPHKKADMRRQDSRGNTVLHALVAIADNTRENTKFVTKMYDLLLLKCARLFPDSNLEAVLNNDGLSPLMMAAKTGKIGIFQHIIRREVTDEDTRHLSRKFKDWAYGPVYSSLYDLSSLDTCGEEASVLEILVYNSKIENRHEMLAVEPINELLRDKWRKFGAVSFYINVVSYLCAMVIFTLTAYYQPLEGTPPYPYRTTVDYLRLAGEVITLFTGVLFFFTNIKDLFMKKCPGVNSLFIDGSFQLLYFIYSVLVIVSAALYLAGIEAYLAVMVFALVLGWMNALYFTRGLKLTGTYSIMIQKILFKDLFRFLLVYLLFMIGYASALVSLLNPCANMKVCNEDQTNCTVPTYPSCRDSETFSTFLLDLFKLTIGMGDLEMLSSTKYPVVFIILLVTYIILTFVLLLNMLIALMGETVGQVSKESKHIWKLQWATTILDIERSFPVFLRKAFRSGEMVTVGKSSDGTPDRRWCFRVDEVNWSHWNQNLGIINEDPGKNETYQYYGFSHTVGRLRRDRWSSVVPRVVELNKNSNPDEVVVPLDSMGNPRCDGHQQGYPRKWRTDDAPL

inhibition at 0.3 µM [1]: 9.96%
SMILES: CC(C)c1ccccc1-c1ccc(N2CC[C@H]([S+]([O-])c3ccc(Cl)cn3)C2)c(CO)c1 (stereo partly shown) [Example 3]

inhibition at 0.3 µM [1]: 23.1%
SMILES: O=S(=O)(c1ccc(Cl)cn1)[C@H]1CCN(c2ccc(-c3ccccc3C3CC3)cc2CO)C1 [Example 5, (S)-(4-(3-((5-chloropyridin-2-yl)sulfonyl)pyrrolidin-1-yl)-2′-cyclopropyl-[1,1′-biphenyl]-3-yl) methanol]

inhibition at 0.3 µM [1]: 18.6%
SMILES: CC(C)c1ccccc1-c1ccc(N2CC[C@H](S(=O)(=O)c3ccc(Cl)cn3)C2)c(CO)c1 [Example 2, ((S)-(4-(3-(5-chloropyridin-2-yl)sulfonyl)pyrrolidin-1-yl)-2′-isopropyl-[1,1′-biphenyl]-3-yl) methanol]

inhibition at 0.3 µM [1]: 4.73%
SMILES: [O-][S+](c1ccc(Cl)cn1)[C@H]1CCN(c2ccc(-c3ccccc3C3CC3)cc2CO)C1 (stereo partly shown) [Example 6]

inhibition at 0.3 µM [1]: 72.8%
Selectivity ratio (hTRPV3) ([1]; ratio of inhibition rate on TRPV3 to inhibition rate on this channel, 0.3 μM): 1x
inhibition at 0.3 µM ([2]; 0.3 μM, patch clamp method, read-out: Inhibition rate (%) on hTRPV1): 0.48%
Selectivity ratio (hTRPV1) ([2]; ratio of inhibition rate on TRPV3 to inhibition rate on hTRPV1, 0.3 μM): 152x
inhibition at 0.3 µM ([3]; 0.3 μM, patch clamp method, read-out: Inhibition rate (%) on hTRPA1): 2.44%
Selectivity ratio (hTRPA1) ([3]; ratio of inhibition rate on TRPV3 to inhibition rate on hTRPA1, 0.3 μM): 30x
inhibition at 0.3 µM ([4]; 0.3 μM, patch clamp method, read-out: Inhibition rate (%) on hTRPV4): 36.2%
Selectivity ratio (hTRPV4) ([4]; ratio of inhibition rate on TRPV3 to inhibition rate on hTRPV4, 0.3 μM): 2x
SMILES: OCc1cc(-c2ccccc2C2CC2)ccc1N1CC[C@H](Sc2ccc(Cl)cn2)C1 [Example 4, ((S)-(4-(3-(5-chloropyridin-2-yl)thio)pyrrolidin-1-yl)-2′-cyclopropyl-[1,1′-biphenyl]-3-yl) methanol]

inhibition at 0.3 µM [1]: 38%
SMILES: CC(C)c1ccccc1-c1ccc(N2CC[C@H](Sc3ccc(C(F)(F)F)cn3)C2)c(CO)c1 [Example 7, ((S)-(2′-isopropyl-4-(3-(5-(trifluoromethyl)pyridin-2-yl)thio)pyrrolidin-1-yl)-[1,1′-biphenyl]-3-yl) methanol]

inhibition at 0.3 µM [1]: 71.6%
in vitro Clint [5]: 135.00 microliters/minute/milligrams
half-life at 1 μM ([5]; read-out: in vitro T1/2): 10.3 min
in vitro Clint [6]: 112.14 microliters/minute/milligrams
half-life at 1 μM ([6]; read-out: in vitro T1/2): 12.4 min
SMILES: CC(C)c1ccccc1-c1ccc(N2CC[C@H](Sc3ccc(Cl)cn3)C2)c(CO)c1 [Example 1, ((S)-(4-(3-(5-chloropyridin-2-yl)thio)pyrrolidin-1-yl)-2′-isopropyl-[1,1′-biphenyl]-3-yl) methanol]

inhibition at 0.3 µM [1]: 97.8%
SMILES: OCc1cc(-c2ccccc2C2CC2)ccc1N1CC[C@H](Sc2ccc(F)cn2)C1 [Example 10, ((S)-(4-(3-(5-fluoropyridin-2-yl)thio)pyrrolidin-1-yl)-2′-cyclopropyl-[1,1′-biphenyl]-3-yl) methanol]
